The results in this text go back to patent US20230391779A1, “BICYCLIC COMPOUNDS, COMPOSITIONS AND USE THEREOF” (Betta Pharmaceuticals Co., Ltd., priority 2020, published 2023).

Broadly, the EC50 is the concentration giving half of the maximal effect.

This experiment has as its system TEAD-YAP/TAZ interaction. The experiment in a line: CTGF ELISA assay. In kind it is cell-based, human. The conditions noted are these: CTGF in culture supernatant of NCI-H2052 cells, 24 hours with compound. How it is done: The detection of CTGF expression level can assessed the binding activity of TEAD-YAP/TAZ transcription factor, and the CTGF expression level was quantified by SimpleStep ELISA® kit (Abcam, ab261851).
NCI-H2052 cells (Purchased from ATCC) were cultured in RPMI 1640 medium, adding 10% FBS and 1% Penicillin-Streptomycin Solution and 1 mM Sodium pyruvate. The day before compounds treatment, the cultured cells were washed with PBS and digested with trypsin, then centrifuged and collected. Discarded the supernatant, the cells were resuspended in fresh complete medium. After cells counted, cells were seeded at 6500 cells/well in 96-well plates. And then cells were cultured overnight in incubator (37° C., 5% CO2).
After the cells were cultured overnight, discarded the culture supernatant, then washed with PBS solution, cells were incubated with 200 μl medium containing compounds in each well. The starting concentration was 10 μM and serial dilution in DMSO and medium were performed to achieve a final DMSO concentration of 0.5% (Final compounds concentration were 10000, 2500, 625, 156, 39.1, 9.77, 2.44, 0.61 nM, 0 nM (0.5% DMSO), The cells were then cultured in incubator (37° C., 5% CO2). Cultured for 24 hours, the cells were centrifuged at 1500 RPM at 4° C. for 5 minutes, and then 50 μl of culture supernatant were tested for CTGF ELISA assay.
The Human CTGF SimpleStep ELISA® Kit (Abcam, ab261851) employs an affinity tag labeled capture antibody and a reporter conjugated detector antibody which immunocapture the sample analyte in solution. This entire complex (capture antibody/analyte/detector antibody) is in turn immobilized via immunoaffinity of an anti-tag antibody coating the well. To perform the assay, samples or standards are added to the wells, followed by the antibody mix (capture antibody/detector antibody). After incubation, the wells are washed to remove unbound material. TMB Development Solution is added and during incubation is catalyzed by HRP, generating blue coloration. This reaction is then stopped by addition of Stop Solution completing any color change from blue to yellow. Signal is generated proportionally to the amount of bound analyte and the intensity is measured at 450 nm. Firstly, prepare all reagents, samples, and standards as instructed. Add 50 μl standard or sample to appropriate wells. Then add 50 μl of the Antibody Cocktail to each well. Seal the plate and incubate for 1 hour at room temperature on a plate shaker. Wash each well with Wash Buffer three times. Add 100 μl of TMB Development Solution to each well and incubate for 10 minutes in the dark on a plate shaker. Add 100 μl of Stop Solution to each well. Shake plate on a plate shaker for 1 minute to mix. Record the OD at 450 nm. Determine the concentration of the target protein in the sample by the standard curve.
EC50 value was determined by fitting the concentration response curves using GraphPad Prism software. The compounds of the present invention were tested for their capacity to inhibit TEAD-YAP/TAZ interaction according to the fitted curves of CTGF concentration response to compounds.
In general terms: An ELISA detects its analyte on a solid surface through an enzyme-linked reagent.

As for `C=CC(=O)N1CCC(n2nc(-c3ccc(C(F)(F)F)cc3)c3ccc(OC)cc32)C1` (stereo not drawn) [Compound 54, 1-(3-(6-methoxy-3-(4-(trifluoro-methyl)phenyl)-1H-indazol-1-yl)-pyrrolidin-1-yl)prop-2-en-1-one], the EC50 worked out at 0.032 µM.
With `CC#CC(=O)N1CCC(n2nc(-c3ccc(C(F)(F)F)cc3)c3ccccc32)C1` (stereo not drawn) [Compound 55, 1-(3-(3-(4-(trifluoromethyl)phen-yl)-1H-indazol-1-yl)pyrrolidin-1-yl)but-2-yn-1-one], the EC50 came to 0.016 µM.
Turning to `C/C=C/C(=O)N1CCC(n2nc(-c3ccc(C(F)(F)F)cc3)c3ccccc32)C1` (stereo not drawn) [Compound 56, (E)-1-(3-(3-(4-(trifluoromethyl)-phenyl)-1H-indazol-1-yl)pyrrol-idin-1-yl)but-2-en-1-one], the EC50 stood at 0.07 µM.
In the case of `C#CC(=O)N1CCC(n2nc(-c3ccc(C(F)(F)F)cc3)c3ccccc32)C1` (stereo not drawn) [Compound 57, 1-(3-(3-(4-(trifluoromethyl)phen-yl)-1H-indazol-1-yl)pyrrolidin-1-yl)prop-2-yn-1-one], the EC50 worked out at 0.082 µM.
For the compound `C=CC(=O)N1CCC(n2nc(-c3ccc(C(F)(F)F)cc3)c3cccc(F)c32)C1` (stereo not drawn) [Compound 70, 1-(3-(7-fluoro-3-(4-(trifluoro-methyl)phenyl)-1H-indazol-1-yl)-pyrrolidin-1-yl)prop-2-en-1-one], the EC50 is 0.034 µM.
Turning to `C=C(F)C(=O)N1CCC(n2nc(-c3ccc(C(F)(F)F)cc3)c3ncccc32)C1` (stereo not drawn) [Compound 71, 2-fluoro-1-(3-(3-(4-(trifluoro-methyl)phenyl)-1H-pyrazolo[4,3-b]pyridin-1-yl)pyrrolidin-1-yl)-prop-2-en-1-one], the EC50 was 0.012 µM.
For `C=C(F)C(=O)N1CCC(n2nc(-c3ccc(C(F)(F)F)cc3)c3ncn(C)c(=O)c32)C1` (stereo not drawn) [Compound 77, 1-(1-(2-fluoroacryloyl)pyrrolidin-3-yl)-6-methyl-3-(4-(trifluoro-methyl)phenyl)-1,6-dihydro-7H-pyrazolo[4,3-d]pyrimidin-7-one], the EC50 came out at 0.006 µM.
Consider `C=CC(=O)N1CCC(n2nc(-c3ccc(C(F)(F)F)cc3)c3cccc(C(=O)OC)c32)C1` (stereo not drawn) [Compound 78, methyl 1-(1-acryloylpyrrolidin-3-yl)-3-(4-(trifluoromethyl)phenyl)-1H-indazole-7-carboxylate], for which the EC50 came out at 0.021 µM.
Under `C=CC(=O)N1CC(n2nc(-c3ccc(C(F)(F)F)cc3)c3ncn(C)c(=O)c32)C1` [Compound 79, 1-(1-acryloylazetidin-3-yl)-6-methyl-3-(4-(trifluoromethyl)-phenyl)-1,6-dihydro-7H-pyrazolo[4,3-d]pyrimidin-7-one] stands 0.0072 µM; under `C=CC(=O)N1CC(n2nc(-c3ccc(C(F)(F)F)cc3)c3ncccc32)C1` [Compound 82, 1-(3-(3-(4-(trifluoromethyl)phen-yl)-1H-pyrazolo[4,3-b]pyridin-1-yl)azetidin-1-yl)prop-2-en-1-one], 0.005 µM; under `C=C(C)C(=O)N1CC(n2nc(-c3ccc(C(F)(F)F)cc3)c3ncccc32)C1` [Compound 87, 2-methyl-1-(3-(3-(4-(trifluoro-methyl)phenyl)-1H-pyrazolo[4,3-b]pyridin-1-yl)azetidin-1-yl)prop-2-en-1-one], 0.007 µM.
For the compound `C=CC(=O)N1CCC(n2nc(-c3ccc(C(F)(F)F)cc3)c3cc(OC)cnc32)C1` (stereo not drawn) [Compound 94, 1-(3-(5-methoxy-3-(4-(trifluoro-methyl)phenyl)-1H-pyrazolo[3,4-b]pyridin-1-yl)pyrrolidin-1-yl)-prop-2-en-1-one], the EC50 is 0.012 µM.
Regarding `C=C(F)C(=O)N1CCC(n2nc(-c3ccc(C(F)(F)F)cc3)c3cc(OC)cnc32)C1` (stereo not drawn) [Compound 95, 2-fluoro-1-(3-(5-methoxy-3-(4-(trifluoromethyl)phenyl)-1H-pyrazolo[3,4-b]pyridin-1-yl)-pyrrolidin-1-yl)prop-2-en-1-one], the EC50 is 0.03 µM.
Consider `C=CC(=O)N1CCC(n2nc(-c3ccc(C(F)(F)F)cc3)c3cc(C)cnc32)C1` (stereo not drawn) [Compound 96, 1-(3-(5-methyl-3-(4-(trifluoro-methyl)phenyl)-1H-pyrazolo[3,4-b]pyridin-1-yl)pyrrolidin-1-yl)-prop-2-en-1-one], for which the EC50 is 0.004 µM.
Take `C=CC(=O)N1CCC(n2nc(-c3ccc(C(F)(F)F)nc3)c3cccc(C(=O)NC(C)C)c32)C1` (stereo not drawn) [Compound 98, 1-(1-acryloylpyrrolidin-3-yl)-N-isopropyl-3-(6-(trifluoromethyl)-pyridin-3-yl)-1H-indazole-7-carboxamide]: the EC50 turned out to be 0.084 µM.
Under `C=CC(=O)N1CCC(n2nc(-c3ccc(C(F)(F)F)nc3)c3cccc(C(=O)NC4CC4)c32)C1` (stereo not drawn) [Compound 100, 1-(1-acryloylpyrrolidin-3-yl)-N-cyclopropyl-3-(6-(trifluorometh-yl)pyridin-3-yl)-1H-indazole-7-carboxamide] stands 0.05 µM; under `C=CC(=O)N1CCC(n2nc(-c3ccc(C(F)(F)F)nc3)c3cccc(C(=O)NC4COC4)c32)C1` (stereo not drawn) [Compound 101, 1-(1-acryloylpyrrolidin-3-yl)-N-(oxetan-3-yl)-3-(6-(trifluorometh-yl)pyridin-3-yl)-1H-indazole-7-carboxamide], 0.097 µM; under `C=CC(=O)N1CCC(n2nc(-c3ccc(C(F)(F)F)nc3)c3cccc(C(=O)NC)c32)C1` (stereo not drawn) [Compound 102, 1-(1-acryloylpyrrolidin-3-yl)-N-methyl-3-(6-(trifluoromethyl)-pyridin-3-yl)-1H-indazole-7-carboxamide], 0.183 µM.
Regarding `C=CC(=O)N1CCC(n2nc(-c3ccc(C(F)(F)F)cc3)c3cccc(C(=O)N(C)C)c32)C1` (stereo not drawn) [Compound 103, 1-(1-acryloylpyrrolidin-3-yl)-N,N-dimethyl-3-(4-(trifluoromethyl)-phenyl)-1H-indazole-7-carbox-amide], the EC50 was 0.158 µM.
With `C=CC(=O)N1CCC(n2nc(-c3ccc(C(F)(F)F)cc3)c3cccc(C(=O)NC4CCC(F)(F)CC4)c32)C1` (stereo not drawn) [Compound 111, 1-(1-acryloylpyrrolidin-3-yl)-N-(4,4-difluorocyclohexyl)-3-(4-(trifluoromethyl)phenyl)-1H-indazole-7-carboxamide], the EC50 amounted to 0.084 µM.
As for `C=CC(=O)N1CCC(n2nc(-c3ccc(C(F)(F)F)cc3)c3cccc(C(=O)N4CCC(F)(F)C4)c32)C1` (stereo not drawn) [Compound 112, 1-(3-(7-(3,3-difluoropyrrolidine-1-carbonyl)-3-(4-(trifluoro-methyl)phenyl)-1H-indazol-1-yl)-pyrrolidin-1-yl)prop-2-en-1-one], the 50% effective concentration (EC50) is 0.086 µM.
Take `C=CC(=O)N1CC(n2nc(-c3ccc(C4CC4)cc3)c3ncccc32)C1` [Compound 120, 1-(3-(3-(4-cyclopropylphenyl)-1H-pyrazolo[4,3-b]pyridin-1-yl)-azetidin-1-yl)prop-2-en-1-one]: the EC50 is 0.036 µM.
`C=CC(=O)N1CC(n2nc(-c3ccc(C(F)(F)F)cc3)c3ccc(N(C)C)nc32)C1` [Compound 121, 1-(3-(6-(dimethylamino)-3-(4-(trifluoromethyl)phenyl)-1H-pyrazolo[3,4-b]pyridin-1-yl)-azetidin-1-yl)prop-2-en-1-one]: the EC50 was 0.003 µM.
Under `C=C(F)C(=O)N1CC(n2nc(-c3ccc(C(F)(F)F)cc3)c3ccc(N(C)C)nc32)C1` [Compound 122, 1-(3-(6-(dimethylamino)-3-(4-(trifluoromethyl)phenyl)-1H-pyrazolo[3,4-b]pyridin-1-yl)-azetidin-1-yl)-2-fluoroprop-2-en-1-one] stands 0.024 µM; under `C=CC(=O)N1CC(n2nc(-c3ccc(C(F)(F)F)nc3)c3cccnc32)C1` [Compound 123, 1-(3-(3-(6-(trifluoromethyl)pyr-idin-3-yl)-1H-pyrazolo[3,4-b]-pyridin-1-yl)azetidin-1-yl)prop-2-en-1-one], 0.007 µM; under `C=CC(=O)N1CCC2(CCC(n3nc(-c4ccc(C(F)(F)F)cc4)c4ncccc43)C2)C1` (stereo not drawn) [Compound 125, 1-(7-(3-(4-(trifluoromethyl)phen-yl)-1H-pyrazolo[4,3-b]pyridin-1-yl)-2-azaspiro[4.4]nonan-2-yl)-prop-2-en-1-one], 0.075 µM.
Under `C=CC(=O)N1CC(n2nc(-c3ccc(C(F)(F)F)cc3F)c3cccnc32)C1` [Compound 127, 1-(3-(3-(2-fluoro-4-(trifluoro-methyl)phenyl)-1H-pyrazolo[3,4-b]pyridin-1-yl)azetidin-1-yl)prop-2-en-1-one] stands 0.008 µM.
